2 compounds from paper PMC9188586, “Design, synthesis and evaluation of novel tetrahydropyridothienopyrimidin-ureas as cytotoxic and anti-angiogenic agents” (Scientific Reports, 2022) can be followed below.

Several values for one entry are separate records, joined by “and”; a condition that tells them apart may be missing. Equal values may be shown once.

One assay relates to MCF-7 (breast cancer). The experiment in a line: MTT antiproliferative assay, MCF-7. Particulars: Homo sapiens, MCF7, 48 h incubation. Type of assay: cell-based. On the procedure:
(§1) Two series of new tetrahydropyridothienopyrimidines were evaluated for their cytotoxicity against a panel of cell lines, including MCF-7 (breast cancer), SW480 (colon cancer), PC-3 (prostate cancer), HEPG-2 (liver cancer) and HUVEC (human umbilical vein endothelial cell) using 3-(4,5-dimethyl- thiazol-2-yl)-2,5-diphenyltetrazolium bromide (MTT) assay. Sorafenib was used as a positive control. The cytotoxicity is expressed as the concentration that inhibits 50% of cell viability (IC50). […] The preliminary SAR is evaluated on the basis of cytotoxicity results of phenyl derivatives (11a–k) and pyridine derivatives (11l–11y).The mesomeric effect didn’t improve the cytotoxicity of compound 11d in the first series.
(§2) Cytotoxicity of the compounds was measured by detecting the ability of cells in transforming MTT into a purple formazan dye. The different cell lines were provided by the National Cell Bank of Iran (Pastor Institute, Tehran, Iran). The required materials and reagents were purchased from Sigma. After the cell culture in RPMI-1640 medium and DMEM containing 10% FBS (Gibco, Milano, Italy), the suspension of MCF-7 (7000) and other cells (5000) were poured into 96 well plates and incubated in a humidified incubator containing 5% CO2 at 37 °C for 24 h. Subsequently, a solution of the compounds in DMSO was added to these plates and incubated for 48 h. After incubation, the solution of 5% 3-(4,5-Dimethyl-2-thiazolyl)-2,5-diphenyl-2H-tetrazolium bromide (MTT) was added to all the wells and incubation was continued for another 4 h. The record of color intensity of the formazan solution was at 570 nm by Bio-Rad microplate reader (Model 680) which reflects the cell growth condition.
On the technique in general: Formazan colour is commonly taken as a measure of viable cells.

Another assay concerns PC-3 (prostate cancer). Briefly: MTT antiproliferative assay, PC-3. Type of assay: cell-based. Particulars: 48 h incubation. How it is done:
as §1, §2

The next assay deals with SW480 (colon cancer). The experiment in a line: MTT antiproliferative assay, SW480. It is filed as cell-based. Particulars: Homo sapiens, SW480, 48 h incubation. How it is done: as §1, §2
The next assay relates to HEPG-2 (liver cancer). Briefly: MTT antiproliferative assay, HEPG-2. It is filed as cell-based. The following applies: Homo sapiens, HepG2, 48 h incubation. How it is done: as §1, §2
Assay [1] relates to HUVEC (human umbilical vein endothelial cell). The experiment in a line: MTT antiproliferative assay, HUVEC. It is filed as cell-based. The following applies: Homo sapiens, HUVEC; MTT assay, 48 h incubation. On the procedure:
as §1, §2

The subject of the next assay is MRC5 normal cell line. The experiment in a line: MTT cytotoxicity against normal cell line MRC5. The following applies: for IC50: Homo sapiens, MRC5, MTT assay, normal cell line. It is filed as cell-based. On the procedure:
as §2

Assay [2] relates to HUVEC cells. The experiment in a line: Annexin V/PI flow cytometry apoptosis analysis, HUVEC. Type of assay: cell-based, human. The following applies: IC50 concentration, 48 h, one replicate. How it is done: (§3) The experiment was conducted by flow cytometry analysis of […] cells with propidium iodide (PI) and annexin V-fluorescein isothiocyanate (annexine V-FITC).
(§4) Then, cells were trypsinized, rinsed with phosphate-bufferede buffered saline (PBS) and then centrifuged at 1200 rpm for 3 min. After this, the binding buffer (500 μL) was added to the resulting cells, followed by addition and mixing with […] and PI (5 μL). After this, the samples were incubated in dark for 10 to 15 min at room temperature, and then the cellular analysis was measured by flow cytometer (FACS Calibur Bectone-Dickinson).
In general terms: A flow cytometer gives signals particle by particle.

In assay [3] the test system is MCF-7 cells. The experiment in a line: Annexin V/PI flow cytometry apoptosis analysis, MCF-7. The following applies: MCF-7, IC50 concentration, 48 h, one replicate. Type of assay: cell-based. How it is done:
as §3, §4

Another assay concerns caspase-3. Briefly: Caspase-3 level by ELISA in MCF-7 cells. It is filed as cell-based, human. Particulars: 24 h. How it is done:
The activity of caspase (cysteinyl-aspartate-specific proteases) as intracellular cell death enzymes has been characterized. So, the […] the process[28]–[31].
Caspase-3 activity was measured using a caspase-3 (Active) (human) ELISA kit, MBS450774, according to the manufacturer’s instructions.
In general terms: An ELISA detects its analyte on a solid surface through an enzyme-linked reagent.

In assay [4] the test system is MCF-7 cells. The experiment in a line: Cell cycle analysis by flow cytometry, MCF-7. It is filed as cell-based. Particulars: MCF-7, IC50 concentration, 48 h. How it is done:
(§5) We can conclude that compound 11n induces cellular apoptosis in […]. An increase in sub-G1 area is an indicative of apoptosis.
(§6) After trypsinization and rinsing with PBS, the cells were centrifuged at 1200 rpm for 5 min and then incubated with PBS and fixed in ice-cooled 70% ethanol. After washing with PBS, the cells were resuspended in RNase A (0.1 mg/mL) and incubated for 5 h. Then, staining with PI ([…]) and incubation for 15 min were performed. By using Novocyte flow cytometer (ACEA Biosciences) the analysis was done and the calculation of cell cycle distributions was done by NovoExpress 1.1.0 software.

The test system of assay [5] is HUVEC cells. The experiment in a line: Cell cycle analysis by flow cytometry, HUVEC. Type of assay: cell-based, human. Particulars: IC50 concentration, 48 h. On the procedure:
as §5, §6

Assay [6] concerns chick chorioallantoic membrane (CAM). Briefly: Chick chorioallantoic membrane (CAM) anti-angiogenic assay. Type of assay: in vivo. The following applies: IC50 concentration, compared with Sorafenib as positive control. On the procedure:
The hydrogen bonding between NH groups of urea and target proteins were known to give rise to better inhibition of an important growth factor receptor (VEGFR-2) involved in the process of angiogenesis. Thus, the chick chorioallantoic membrane (CAM) assay was utilized as an in-vivo technique to evaluate the anti-vascular effects. Therefore, the anti-angiogenic strength of compounds were investigated by a cheap and simple CAM assay (Figs. 4, 5)[32],[33]. The anti-angiogenic strength was measured and compared with DMSO (control) and Sorafenib as a positive control.
All eggs were supplied from (Poultry Breeding Farm, Tehran, Iran). Since the allantois of the chick embryo appears at about 3.5 days of incubation, the corresponding eggs were incubated (37.5 °C, relative humidity: 55–65%). To decrease the risk of infection, the particular regions of the egg, e.g., the front side of the embryo were cleaned and sterilized with 70% EtOH. On the 6th incubation day, a false air sac was created directly over the CAM, permitting its detachment from the shell membrane. The procedure was continued through a square incision over the CAM. The prepared window in a square form (1 × 1 cm), was covered by a flexible film and then transported to the incubator. On the 8th incubation day, the particular paper discs (Whatman) were coated with target agents and placed in the central area of the corresponding window. The surface of CAM was visually evaluated on the 12th incubation day using the stereomicroscope. We decided to use the number and the length of capillary blood vessels as the index of anti-angiogenic activity. Consequently, the prepared images were analyzed by the advantageous software, Image J[22],[23].

The next assay addresses T1, VEGFR-2 (Homo sapiens, UniProt P35968).
T1 construct: endogenous in cells; host or cells: HUVEC
The experiment in a line: Western blot of VEGFR-2 phosphorylation in HUVECs. Particulars: HUVEC, IC50 concentration, after 48 and 72 h, compared to positive control. Type of assay: cell-based. How it is done:
It was is observed that, after 48 and 72 h, the phosphorylation of VEGFR-2 decreases compared to the positive control (Fig. 7).
After thawing in […] lysis buffer and centrifuge at 1200 rpm, the loading and electrophoresis of proteins on 12% SDSPAGE was performed. Then, they transferred for 1.5 h at 100 V into a nitrocellulose membrane ([…]) and blocked with 5% blocking buffer. After incubation of antibodies at 4 ◦C for 12 h, the detection of immunoblots were performed using the enhanced chemiluminescence (ECL) method.

The next assay concerns HUVEC and MCF-7 cells. The experiment in a line: Cell cycle analysis by flow cytometry, cell line not given. Type of assay: cell-based. Particulars: cell line not stated, IC50 concentration, 48 h. How it is done: An increase in sub-G1 area is an indicative of apoptosis.
as §6

T1 sequence (P35968 20-1356): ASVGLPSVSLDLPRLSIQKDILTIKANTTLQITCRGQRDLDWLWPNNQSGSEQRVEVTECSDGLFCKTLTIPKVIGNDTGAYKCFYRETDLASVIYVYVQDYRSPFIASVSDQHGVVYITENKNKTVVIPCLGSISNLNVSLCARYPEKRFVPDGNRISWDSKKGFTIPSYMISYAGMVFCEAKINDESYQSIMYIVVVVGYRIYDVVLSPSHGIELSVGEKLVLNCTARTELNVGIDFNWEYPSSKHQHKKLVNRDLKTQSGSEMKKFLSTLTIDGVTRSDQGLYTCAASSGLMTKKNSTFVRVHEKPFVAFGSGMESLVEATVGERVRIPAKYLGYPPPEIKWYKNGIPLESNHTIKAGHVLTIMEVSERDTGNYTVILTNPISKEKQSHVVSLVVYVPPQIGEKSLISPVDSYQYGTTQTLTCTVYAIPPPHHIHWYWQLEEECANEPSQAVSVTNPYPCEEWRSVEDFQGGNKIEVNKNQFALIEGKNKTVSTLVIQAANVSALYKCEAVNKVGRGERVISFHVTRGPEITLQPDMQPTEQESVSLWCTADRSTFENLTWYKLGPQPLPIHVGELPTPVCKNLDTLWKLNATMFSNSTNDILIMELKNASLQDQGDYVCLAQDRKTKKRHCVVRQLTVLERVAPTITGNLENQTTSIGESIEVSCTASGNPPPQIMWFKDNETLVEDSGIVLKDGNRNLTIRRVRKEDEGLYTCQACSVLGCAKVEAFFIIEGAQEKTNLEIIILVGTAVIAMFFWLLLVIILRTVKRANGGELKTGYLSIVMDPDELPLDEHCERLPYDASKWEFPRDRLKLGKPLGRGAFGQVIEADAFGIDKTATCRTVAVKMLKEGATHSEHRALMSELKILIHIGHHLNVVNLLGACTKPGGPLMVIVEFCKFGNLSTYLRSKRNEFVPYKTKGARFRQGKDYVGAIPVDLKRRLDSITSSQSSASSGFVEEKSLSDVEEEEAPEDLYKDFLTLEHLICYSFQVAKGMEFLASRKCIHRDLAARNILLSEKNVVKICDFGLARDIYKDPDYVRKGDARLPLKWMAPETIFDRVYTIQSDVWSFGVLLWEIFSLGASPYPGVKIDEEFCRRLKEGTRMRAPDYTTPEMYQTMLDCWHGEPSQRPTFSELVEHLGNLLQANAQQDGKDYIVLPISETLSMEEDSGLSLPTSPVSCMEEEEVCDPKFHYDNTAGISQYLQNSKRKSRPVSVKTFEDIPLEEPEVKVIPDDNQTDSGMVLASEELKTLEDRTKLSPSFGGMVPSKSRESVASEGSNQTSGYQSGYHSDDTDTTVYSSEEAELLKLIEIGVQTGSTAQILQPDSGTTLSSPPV

Broadly, the IC50 is the point on the concentration scale where inhibition reaches its midpoint. A higher IC50 goes with weaker potency in that assay. Turning to `Cc1ccc(NC(=O)Nc2nnc(Sc3ncnc4sc5c(c34)CCN(Cc3ccncc3)C5)s2)cc1` [Compound 11n, 1-(5-((7-(pyridin-4-ylmethyl)-5,6,7,8-tetrahydropyrido[4',3':4,5]thieno[2,3-d]pyrimidin-4-yl)thio)-1,3,4-thiadiazol-2-yl)-3-(p-tolyl)urea], the IC50 in the assay on MCF-7 (breast cancer) came out at 2670 ± 210 nM; with PC-3 (prostate cancer), 11.35 ± 0.09 µM; in the assay on SW480 (colon cancer), 6.84 ± 0.05 µM; with HEPG-2 (liver cancer), 7.2 ± 0.03 µM; in [1], 2090 ± 80 nM; with MRC5 normal cell line, 38.1 ± 0.81 µM. Further, the “SI (Selectivity Index)” value in the assay with MRC5 normal cell line (IC50 value normal cell (MRC5)/IC50 value cancer cell (MCF-7)) was 14 and 14.2. The “Early apoptotic cells (Q3)” value was 16.5% in the assay on HUVEC cells [2] and 22.8% with MCF-7 cells [3]. For the same compound, the “Late apoptotic cells (Q2)” value turned out to be 79.8% with HUVEC cells [2] and 58.2% with MCF-7 cells [3]. This compound also had a Casp3 conc. in the assay on caspase-3 (11n at 2.67 μM, Sorafenib at 7.06 μM) of 3.63 ± 0.52 ng/mL. For the same compound, in the assay on caspase-3 (control = 1), the “FLD (fold change of caspase-3 level)” value came to 5.2 fold. In addition, the “Percentage of cells in G0 phase” value with MCF-7 cells [4] was determined as 54.3%; in the assay with HUVEC cells [5] it was 65.5%. Further, the “Inhibitory effect on growing CAM (in words)” value in [6] was “slightly weaker inhibitory effects”. In addition, the “Phosphorylation of VEGFR-2 (in words)” value on VEGFR-2 is “decreases”.
Turning to `Cc1ccccc1NC(=O)Nc1nnc(Sc2ncnc3sc4c(c23)CCN(Cc2ccncc2)C4)s1` [Compound 11l, 1-(5-((7-(pyridin-4-ylmethyl)-5,6,7,8-tetrahydropyrido[4',3':4,5]thieno[2,3-d]pyrimidin-4-yl)thio)-1,3,4-thiadiazol-2-yl)-3-(o-tolyl)urea], the IC50 in the assay on MCF-7 (breast cancer) worked out at 2800 ± 30 nM; with PC-3 (prostate cancer) it was 6.11 ± 0.08 µM; in the assay on SW480 (colon cancer), 15 ± 0.38 µM; in the assay with HEPG-2 (liver cancer) it was 9.94 ± 0.07 µM; in assay [1], 2530 ± 50 nM; in the assay on MRC5 normal cell line, 24.8 ± 0.36 µM. In the assay with HUVEC cells [2], the “Early apoptotic cells (Q3)” value was 5.51%. Moreover, in the assay with HUVEC cells [2], the “Late apoptotic cells (Q2)” value turned out to be 89.0%. Moreover, the “Percentage of cell population in the S phase” value in the assay with MCF-7 cells [4] is 49.8%. In the assay with HUVEC and MCF-7 cells, the “Percentage of cells in G0 phase” value stood at 97.6%.
